Legend:
[1] = system: MCF-7 (breast); test: Anti-proliferation, cell count after 48 h (Coulter Counter), MCF-7; type: cell-based; conditions: treated 48 hours, extrapolated from FIGS. 1-9
Method: (§1) In this study, the anti-proliferative effects of each of four glucosyl ether lipid compounds were assessed on a panel of epithelial cancer cell lines. Two Cglucosyl ether lipids in accordance with the invention (compounds 4 and 17) were evaluated. In addition, a 2′-deoxy C-glucosyl ether lipid (compound 2) and a 2′-amino-2′-deoxy O-glucosyl ether lipid (compound 3), were evaluated. Thirty mM stock concentration of each of the four compounds were prepared in ethanol.
(§2) The experimental procedure used is detailed in Lu, X. and Arthur, G., Cancer Res., 52:2806-2812 (1992), the pertinent parts of which are incorporated by reference. Briefly, the epithelial cancer cell lines, namely SK-N-MC and SK-N-SH (neuroblastoma); DU145 (prostate); A498 (kidney); MDA-MB-468, MDA-MB-231, HS578t, MCF-7 and BT549 (breast), were subcultured into 24-well plates and allowed to grow to exponential phase. The medium was changed and replaced with one containing the glucosyl ether lipid compounds ([…]) in 10% FBS-supplemented medium. The cell numbers in representative wells were determined at the time of addition of the compounds. After 48 hours, the cells were detached with trypsin and the numbers were determined with a Coulter Counter. The increase in cell numbers were expressed as a percentage relative to those in wells without any drug (control).
(§3) See Erukulla, et al., J. Med. Chem., 39:1545-1548 (1996), the pertinent portions of which are incorporated herein by reference. Table 1 summarizes the comparative test results for 17, 3, 4, and the 2-deoxy analog of 4, (3S)-3-O-methyl-4-O-hexadecyl-2′-deoxy-β-D-glucopyranosylbutane (compound 2), which had been described in our earlier paper (Yang et al., Org. Lett., 1:2149-2151 (1999)). The method utilized was the same as that described in Example 2 above, and the Gl50 values were extrapolated from the results shown in FIGS. 1-9. In all nine examples, the close similarity in antiproliferative activity is striking.

[2] = system: MDA-MB-468 (breast); test: Anti-proliferation, cell count after 48 h (Coulter Counter), MDA-MB-468; type: cell-based; conditions: treated 48 hours, extrapolated from FIGS. 1-9
Method: as §1, §2, §3

[3] = system: MDA-MB-231 (breast); test: Anti-proliferation, cell count after 48 h (Coulter Counter), MDA-MB-231; type: cell-based; conditions: treated 48 hours, extrapolated from FIGS. 1-9
Method: as §1, §2, §3

[4] = system: HS578T (breast); test: Anti-proliferation, cell count after 48 h (Coulter Counter), HS578T; type: cell-based; conditions: treated 48 hours, extrapolated from FIGS. 1-9
Method: as §1, §2, §3

[5] = system: BT549 (breast); test: Anti-proliferation, cell count after 48 h (Coulter Counter), BT549; type: cell-based; conditions: treated 48 hours, extrapolated from FIGS. 1-9
Method: as §1, §2, §3

[6] = system: A498 (kidney); test: Anti-proliferation, cell count after 48 h (Coulter Counter), A498; type: cell-based; conditions: treated 48 hours, extrapolated from FIGS. 1-9
Method: as §1, §2, §3

[7] = system: SK-N-SH (neuroblastoma); test: Anti-proliferation, cell count after 48 h (Coulter Counter), SK-N-SH; type: cell-based; conditions: neuronal, treated 48 hours, extrapolated from FIGS. 1-9
Method: as §1, §2, §3

[8] = system: SK-N-MC (neuroblastoma); test: Anti-proliferation, cell count after 48 h (Coulter Counter), SK-N-MC; type: cell-based; conditions: neuronal, treated 48 hours, extrapolated from FIGS. 1-9
Method: as §1, §2, §3

[9] = system: DU145 (prostate); test: Anti-proliferation, cell count after 48 h (Coulter Counter), DU145; type: cell-based; conditions: treated 48 hours, extrapolated from FIGS. 1-9
Method: as §1, §2, §3

[10] = Storage stability; type: physicochemical; conditions: stored at 0° C.
Method: Deprotection and reduction of alkene 15 using H2 and 10% Pd/C afforded β-C-glycoside 16 in 85% yield. Of the several methods attempted for cleavage of the silyl group (e.g., Bu4NF, formic acid, acidic ionic exchange resin, and BF3, Et2O conditions), only BF3,Et2O in CH3CN gave a clean reaction (see King, et al., Tetrahedron Lett., 36:4563 (1995), the pertinent portions of which are incorporated herein by reference). The N-acetyl group was cleaved by using 2 N KOH/EtOH at reflux at 120° C. to afford the final product 4. [drawing 8]

[11] = system: panel of epithelial cancer cell lines; test: Cancer cell proliferation study, whole panel (FIGS. 1-9); type: cell-based; conditions: nine cancer cell lines, 48 hours, 10% FBS-supplemented medium
Method: as §1, §2

[12] = comparison with compound 1; cited from earlier work

| SMILES | GI50 [1] | GI50 [2] | GI50 [3] | GI50 [4] | GI50 [5] | GI50 [6] | GI50 [7] | GI50 [8] | GI50 [9] | storage time without decomposition [10] | anti-proliferative efficacy (increase in cell numbers relative to control) [11] | antiproliferative activity of C-glycoside relative to O-glycoside compound 1 [12] |
| --- | --- | --- | --- | --- | --- | --- | --- | --- | --- | --- | --- | --- |
| CCCCCCCCCCCCCCCCOC[C@H](CC[C@@H]1O[C@H](CO)[C@@H](O)[C@H](O)[C@H]1N)OC [Compound 4, (3S)-3-O-methyl-4-O-hexadecyl-2′-amino-2′-deoxy-β-Dlucopyranosylbutane] | 8.1 µM | 9 µM | 9.1 µM | 5.1 µM | 8.9 µM | 8.5 µM | 4.1 µM | 4.1 µM | 7.9 µM | more than one month without any decomposition | – | – |
| CCCCCCCCCCCCCCCCOC[C@H](CC[C@@H]1O[C@H](CO)[C@@H](O)[C@H](O)[C@H]1NC(C)=O)OC [Compound 17, (3S)-3-O-Methyl-4-O-hexadecyl 2′-acetamido-2′-deoxy-β-D-glucopyranosylbutane] | 25 µM | 34.4 µM | 40 µM | 21 µM | 28.5 µM | > 15 µM | > 15 µM | > 15 µM | > 15 µM | – | generally less efficacious than the other two glycoside ether lipids evaluated | – |
| CCCCCCCCCCCCCCCCOC[C@H](CC[C@H]1C[C@@H](O)[C@H](O)[C@@H](CO)O1)OC [Compound 2, (3S)-3-O-methyl-4-O-hexadecyl-2′-deoxy-β-D-glucopyranosylbutane, reference compound] | > 15 µM | 11.4 µM | > 15 µM | > 15 µM | > 15 µM | > 15 µM | > 15 µM | > 15 µM | > 15 µM | – | generally less efficacious than the other two glycoside ether lipids evaluated | several fold weaker activity |

Source: patent US20020128214A1, “C-glucosyl ether lipids” (priority 2000, published 2002)
